Measured values reported in US20190169669A1, “[…] OF […] IDENTIFICATION OF NATURAL LIGAND OF SAID RECEPTOR AND USES THEREOF” (Institut National de la Recherche Agronomique, priority 2016, published 2019).

Test system: SlitOR5
Assay: Single-sensillum recordings on Drosophila at1 olfactory neurons expressing SlitOR5
Type: cell-based, Spodoptera littoralis
Details: for significance of response versus solvent alone: n=7, Kruskal-Wallis ANOVA with Dunn's post-hoc test
Description: SlitOR5 can be heterologously expressed in vivo in an organism, for example Drosophila melanogaster, using transgenesis (e.g. the Gal4-UAS system in D. melanogaster). SlitOR5 can be expressed in a large part of the endogenous olfactory sensory neurons (OSNs) of the organism (for instance using the ORco promotor) or in a given subset of the OSN population. The modified responses of the antenna or of the targeted OSNs are then recorded using, respectively, electroantennography (EAG) and single sensillum recording (SSR). Some D. melanogaster mutant lines may be used to replace a native Drosophila OR with SlitOR5, such as the ab3A mutant line which allows for expression of SlitOR5 in ORNs usually expressing DmelOR22a (Hallem et al., Cell 2004, 117(7):965-979), and the DmelOr67dGAL4 mutant knock-in line, which allows for expression of SlitOR5 in place of DmelOR67d, in the unique OSN of the atl Drosophila sensilla (Kurtovic et al. Nature 2007, 446(7135):542-546). The candidate agent activity is measured as the antenna depolarization (EAG) or the number of action potential (SSR) generated by stimulation of an air flow containing the candidate agent (typically from 0.1 μg to 100 μg of the candidate agent loaded in the stimulation cartridge). Depolarization and action potential number are compared, respectively, to depolarization and action potential number generated by the agent solvent alone.
The transformant UAS-SlitOR5 balanced fly line was generated by BestGene Inc. (Chino Hills, Calif., USA), using the PhiC31 integrase system. Briefly, recombinant pUAST.attB-SlitOR5 plasmids were injected into embryos of a D. melanogaster line containing an attP insertion site within the second chromosome (genotype y1 M{vas-int.Dm}ZH-2A w*; M{3×P3-RFP.attP′}ZH-51C), leading to non-random integration. To drive expression of SlitOR5 in neurons housed in atl sensilla, the transformant UAS-SlitOR5 line was crossed to a line carrying the mutant knock-in allele Or67d^GAL4 (kindly provided by Dr. Barry Dickson, IMP, Vienna, Austria) to generate a double homozygous line w;UAS-SlitOr5;Or67d^GAL4. Flies were reared on standard cornmeal-yeast-agar medium and kept in a climate- and light-controlled environment (25° C., 12:12 light:dark cycle). The presence of the UAS-SlitO5 transgene was verified by PCR on genomic DNA extracted from two flies, and the expression of SlitOR5 in fly antennae was verified by RT-PCR on total RNA extracted from >100 pairs of antennae.
The response spectrum of SlitOR5 was tested by means of single-sensillum recordings on flies expressing the SlitOR5 transgene in atl neurons, instead of the endogenous receptor DmelOR67d. Two- to 10-day-old male flies were restrained in a plastic pipette tip with only the head protruding from the narrow end. The pipette tip was fixed with dental wax on a microscope glass slide with the ventral side of the fly facing upward. Then, the antenna was gently placed on a piece of glass slide and maintained by placing a glass capillary between the 2nd and 3rd antennal segments. Afterwards, the slides were placed under a light microscope (BX51WI, Olympus, Tokyo, Japan) equipped with a 100× magnification objective. Desiccation of the flies was avoided thanks to a constant 1.5 L·min^−1 flux of charcoal-filtered and humidified air, delivered through a glass tube of a 7 mm diameter, which terminated ca. 1.5 cm from the antenna.
Stimulation cartridges were built by placing a 1 cm^2 filter paper in the large opening end of a Pasteur pipette and dropping 10 μl of an odorant solution onto the paper before closing the pipette with a 1 mL plastic pipette tip. A screening panel of 26 pheromone compounds (see Table 1 for detail) were used at a 1 μg/μl dilution in hexane (10 μg deposited on the filter paper). Pipettes with filter papers containing 10 μL of solvent were used as controls. […]

[1] = response spectrum screen, 10 μg loaded in the stimulus cartridge

## CC/C=C/C=C\CCCCCCCCOC(C)=O [Z9,E11-14:OAc, (Z,E)-9,11-tetradecadienyl acetate]
Dose 1 μg loaded on the stimulus cartridge, n=5
  response of at1 neurons (firing rate), dose-response: 15 spikes·s^−1
Dose 10 μg loaded on the stimulus cartridge, n=5
  response of at1 neurons (firing rate), dose-response: 43 spikes·s^−1
Response spectrum screen, 10 μg loaded in the stimulus cartridge, 500 ms air pulse, n=7, w;UAS-SlitOr5;Or67d^GAL4 flies
  mean net response (firing rate) of SlitOR5-expressing neurons: 75 spikes·s^−1
[1]
  significance of response versus solvent alone: significant response
The two lower doses (dose range 0.01 μg to 10 μg), n=5
  response of at1 neurons versus solvent alone, dose-response: did not significantly differ

## CC/C=C\C=C/CCCCCCCCOC(C)=O [Z9,Z11-14:OAc, (Z,Z)-9,11-tetradecadienyl acetate]
[1]
  significance of response versus solvent alone: not significant

## CC/C=C\CCCCCCCCOC(C)=O [Z9-12:OAc, (Z)-9-dodecenyl acetate]
[1]
  significance of response versus solvent alone: not significant

## CCCC/C=C\CCCCCCCCOC(C)=O [Z9-14:OAc, (Z)-9-tetradecenyl acetate]
[1]
  significance of response versus solvent alone: not significant
